Laboratory results published in US10071103B2, “Treatments for resistant acne” (VYOME BIOSCIENCES PVT. LTD., priority 2014, dated 2018).
Values after ≈ are worked out from the molar mass of the structure shown. “Also recorded” adds a separate entry of the source. Read-outs that look alike come from different tables or passages of the source.

Key:
P. acnes MTCC 1951 = experiment: MIC by micro broth dilution (Alamar blue), clindamycin-susceptible P. acnes; assay type: cell-based, Propionibacterium acnes; settings: for MIC: Cutibacterium acnes, MTCC1951; for Activity / bacterial killing, dose response curve (in words): clindamycin-susceptible MTCC 1951
How it was run: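 P. acnes in BHI broth, inoculum adjusted to 0.5 McFarland and diluted 100-fold, exposed to serially diluted compound at 37° C. for 48-72 h under anaerobic conditions. Growth read by OD at 595 nm; MIC recorded after Alamar blue addition.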

E. coli DNA gyrase = biological target: T1, E. coli DNA gyrase (Escherichia coli, UniProt P0AES4+P0AES6); experiment: DNA gyrase super-coiling activity assay (Topogen kit, relaxed pHOT1 plasmid); assay type: biochemical; settings: for Super-coiled band (percentage of DNA super-coiling): untreated control 100%; for Inhibition of super-coiling activity of DNA gyrase (in words): 1 μM and 2.5 μM
T1 construct: purchased Topogen Inc
T1 sequence (P0AES4 whole entry, one chain of several): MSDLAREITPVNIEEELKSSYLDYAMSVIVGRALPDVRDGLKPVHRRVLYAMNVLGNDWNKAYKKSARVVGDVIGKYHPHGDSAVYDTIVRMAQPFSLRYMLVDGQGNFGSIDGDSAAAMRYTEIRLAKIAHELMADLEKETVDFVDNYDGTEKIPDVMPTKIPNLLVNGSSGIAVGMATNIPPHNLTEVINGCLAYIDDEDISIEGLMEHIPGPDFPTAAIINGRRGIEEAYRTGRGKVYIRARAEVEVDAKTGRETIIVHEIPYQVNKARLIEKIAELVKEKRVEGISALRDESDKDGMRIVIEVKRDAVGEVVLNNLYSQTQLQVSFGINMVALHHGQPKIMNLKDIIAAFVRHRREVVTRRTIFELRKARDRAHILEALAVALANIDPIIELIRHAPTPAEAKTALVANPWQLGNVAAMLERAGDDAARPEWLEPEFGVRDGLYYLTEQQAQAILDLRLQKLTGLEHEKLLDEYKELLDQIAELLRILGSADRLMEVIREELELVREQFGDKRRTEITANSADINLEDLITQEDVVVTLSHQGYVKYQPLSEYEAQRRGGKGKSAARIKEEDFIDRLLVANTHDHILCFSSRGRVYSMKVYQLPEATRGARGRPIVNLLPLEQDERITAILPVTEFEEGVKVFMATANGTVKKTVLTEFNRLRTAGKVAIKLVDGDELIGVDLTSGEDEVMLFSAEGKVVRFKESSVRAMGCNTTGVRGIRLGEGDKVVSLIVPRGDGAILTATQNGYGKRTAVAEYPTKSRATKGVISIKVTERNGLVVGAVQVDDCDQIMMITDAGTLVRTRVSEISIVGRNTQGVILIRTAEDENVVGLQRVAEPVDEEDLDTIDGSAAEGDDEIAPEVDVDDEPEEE
Description: DNA super-coiling activity was assayed using DNA gyrase assay kit (Topogen Inc.) with relaxed pHOT1 E. coli plasmid DNA according to manufacturer's protocol. The standard reaction mixture (20 μl) contained 35 mM Tris-HCl (pH 7.5), 24 mM KCl, 4 mM MgCl2, 2 mM dithiothreitol, 1.8 mM spermidine, 1 mM ATP, 6.5% glycerol, 0.1 mg/ml bovine serum albumin (BSA), 10 μg/ml relaxed pHOT1 plasmid DNA and 1 U of DNA gyrase. The reaction mixture was incubated at 37° C. for 1 h in presence of selected compounds/fluoroquinolone at different concentrations. The reaction was terminated by addition of ⅕ volume of loading dye (4 μl) followed by proteinase K (50 μg/ml) and again incubated at 37° C. for half an hour. 20 μl chloroform/isoamyl alcohol (24:1) was added to each tube and vortexed briefly. Thereafter, the blue aqueous phase was separated out and analyzed by 1% agarose gel electrophoresis. The gel was stained by ethidium bromide for half an hour and destained with water for 15 mins. The gel was then visualized in a trans-illuminator and photographed.

IL-6 = experiment: P. acnes-induced IL-6 release in THP-1 cells (ELISA); assay type: cell-based; settings: 25 μg/ml, THP-1 cells, 100% = P. acnes induced cells
IL-8 = experiment: P. acnes-induced IL-8 release in THP-1 cells (ELISA); assay type: cell-based; settings: 25 μg/ml
IL-1α = experiment: P. acnes-induced IL-1α release in THP-1 cells (ELISA); assay type: cell-based; settings: 25 μg/ml, 100% = P. acnes induced cells
Description: (§1) Method: Preparation of Stimulant for Inflammation: P. acnes culture suspension was prepared in PBS and the cell number in the suspension was adjusted to approximately 5×10^8 CFU/ml by measuring the cell density using a Densimat. The bacterial suspension was then heat killed at 80° C. for 30 min and stored at −80° C. until further use.
(§2) Cells were seeded in a 96-well format (2×10^5 THP-1 cells per well) in media containing 10% FBS. The cells were stimulated to induce inflammatory cytokines using 3 McFarland equivalent heat-killed P. acnes. Cells in control wells were treated with PBS. One hour after induction with P. acnes, test agents were added to the induced cells at appropriate concentrations to be tested (compound 91 at 25 μg/ml). The plates were incubated at 37° C. for 24 hours. After 24 h, the plates were centrifuged to pellet the cells and the supernatants were collected. The cell culture supernatants thus obtained were analyzed for levels of cytokines (IL-1α, IL-1β, IL-6 and IL-8) by ELISA using R&D Systems kits for individual cytokines following the manufacturer's instructions.

IL-1β = experiment: P. acnes-induced IL-1β release in THP-1 cells (ELISA); assay type: cell-based; settings: 25 μg/ml, 100% = P. acnes induced cells
Description: as §1, §2

**Q.** Which MIC (P. acnes MTCC 1951; Table 7, against P. acnes, read-out: MIC) does the source give for `Cc1ncc([N+](=O)[O-])n1CC(O)CN1CCN(c2cc3c(cc2F)c(=O)c(C(=O)O)c2n3C(C)S2)CC1` (stereo not shown) [Compound 91, 6-Fluoro-7-{4-[2-hydroxy-3-(2-methyl-5-nitro-imidazol-1-yl)-propyl]-piperazin-1-yl}-1-methyl-4-oxo-4H-2-thia-8b-aza-cyclobuta[a]naphthalene-3-carboxylic acid] here?
**A.** 0.2 µg/mL (≈ 0.376 µM)

**Q.** And the MIC (P. acnes MTCC 1951; read-out: MIC Susceptible P. acnes (1951) strain)?
**A.** 0.2 µg/mL (≈ 0.376 µM)

**Q.** What about the “Activity / bacterial killing, dose response curve (in words)” value (P. acnes MTCC 1951) of the same molecule?
**A.** highly efficacious bacterial killing profile

**Q.** What about the “Activity / bacterial killing, dose response curve (in words)” value (P. acnes MTCC 1951; listed as compound 91) of the same molecule?
**A.** lower MIC value and faster bacterial killing profile

**Q.** And the “Super-coiled band (percentage of DNA super-coiling)” value (E. coli DNA gyrase; 0.25 μM)?
**A.** around 54.3%

**Q.** And the “Inhibition of super-coiling activity of DNA gyrase (in words)” value (E. coli DNA gyrase)?
**A.** best gyrase inhibiting activity; also recorded: greater efficacy

**Q.** And the “Inhibition of super-coiling activity of DNA gyrase (in words)” value (E. coli DNA gyrase; listed as compound 91)?
**A.** able to inhibit the super-coiling activity; also recorded: highly potent; also recorded: better efficacy; also recorded: most potent

**Q.** And the “Super-coiled band (percentage of DNA super-coiling)” value (E. coli DNA gyrase; 5 μM)?
**A.** about 2%

**Q.** What about the “Percentage reduction in P. acnes induced IL-6 release” value (IL-6) of the same molecule?
**A.** 56.76%

**Q.** And the “Percentage reduction in P. acnes induced IL-6 release” value (IL-6; listed as compound 91)?
**A.** ~60%

**Q.** And the “Effect on IL-8 levels (in words)” value (IL-8; P. acnes-induced THP-1 cells)?
**A.** did not have an effect

**Q.** What about the “Percentage reduction in P. acnes induced IL-8 release” value (IL-8; THP-1 cells, 100% = P. acnes induced cells) of the same molecule?
**A.** 14.65%

**Q.** And the “Percentage reduction in P. acnes induced IL-1α release” value (IL-1α)?
**A.** 27.51%

**Q.** What about the “Percentage reduction in P. acnes induced IL-1α release” value (IL-1α; listed as compound 91) of the same molecule?
**A.** 20-25%

**Q.** And the “Percentage reduction in P. acnes induced IL-1β release” value (IL-1β)?
**A.** 20.49%

**Q.** And the “Percentage reduction in P. acnes induced IL-1β release” value (IL-1β; listed as compound 91)?
**A.** 20-25%
